These results are taken from patent US6403622B1, “Phenylacetic acid heterocyclyl amides having an insecticidal effect” (Bayer Aktiengesellschaft, priority 1998, dated 2002).

SMILES strings stand for the structures. Where two headings read alike, the source gives them in different places.

One series deals with Plasmopara vilicola. The series is described as follows: Plasmopara test (grapevine) / protective. Particulars: 144 h, application rate 100 g/ha, evaluation 6 days after inoculation, read-out: Efficacy in %. Format: in vivo. On the procedure:
(§1) Solvent: 47 parts by weight of acetone
(§2) Emulsifier: 3 parts by weight of alkylaryl polyglycol ether
(§3) To produce a suitable preparation of active compound, 1 part by weight of active compound is mixed with the stated amounts of solvent and emulsifier, and the concentrate is diluted with water to the desired concentration.
To test for the protective activity, young plants are sprayed with the preparation of active compound at the stated application rate. After the spray coating has dried on, the plants are inoculated with an aqueous spore suspension of Plasmopara vilicola and then remain in an incubation cabin at about 20° C. and 100% relative atmospheric humidity for 1 day. The plants are then placed in a greenhouse at about 21° C. and about 90% relative atmospheric humidity for 5 days. The plants are then moistened and placed in an incubation cabin for 1 day.
Evaluation is carried out 6 days after the inoculation. 0% means an efficacy which corresponds to that of the control, whereas an efficacy of 100% means that no infection is observed.

A further series in a line: log p determination. It counts as physicochemical.
The subject of series [1] is larvae of the mustard beetle (Phaedon cochleariae). In words: Phaedon larvae test. The note with it: 168 h, concentration of active compound 0.1 %, cabbage leaves dipped, after 7 d, read-out: Kill rate in % after 7 d. It counts as in vivo. On the procedure:
Solvent: 7 parts by weight of dimethylformamide Emulsifier: 1 part by weight of alkylaryl polyglycol ether To produce a suitable preparation of active compound, 1 part by weight of active compound is mixed with the stated amount of solvent and the stated amount of emulsifier, and the concentrate is diluted with water to the desired concentration. Cabbage leaves (Brassica oleracea) are treated by being dipped into the preparation of active compound and are populated with larvae of the mustard beetle (Phaedon cochleariae) while the leaves are still moist.

Another series concerns Podosphaera leucotricha. In words: Podosphaera test (apple) / protective. It counts as in vivo. The note with it: application rate 100 g/ha, evaluation 10 days after inoculation. How it is done: as §1, §2, §3
To test for protective activity, young plants are sprayed with the preparation of active compound at the stated application rate. After the spray coating has dried on, the plants are inoculated with an aqueous spore suspension of the causative organism of apple mildew Podosphaera leucotricha. The plants are then placed in a greenhouse at about 23° C. and a relative atmospheric humidity of about 70%.
Evaluation is carried out 10 days after the inoculation. 0% means an efficacy which corresponds to that of the control, whereas an efficacy of 100% means that no infection is observed.

The subject of series [2] is caterpillars of the army worm Spodoptera frugiperda. In words: Spodoptera frugiperda test. Format: in vivo. Particulars: concentration of active compound 0.1 %, cabbage leaves dipped. On the procedure:
(§4) Solvent: 7 parts by weight of dimethylformamide
(§5) Emulsifier: 1 part by weight of alkylaryl polyglycol ether
(§6) To produce a suitable preparation of active compound, 1 part by weight of active compound is mixed with the stated amount of solvent and the stated amount of emulsifier, and the concentrate is diluted with water to the desired concentration.
Cabbage leaves (Brassica oleracea) are treated by being dipped into the preparation of active compound of the desired concentration and are populated with caterpillars of the army worm Spodoptera frugiperda while the leaves are still moist.
After the desired period of time, the effect in % is determined. 100% means that all caterpillars have been killed; 0% means that none of the caterpillars have been killed.

In series [3] the test system is larvae of the green rice leafhopper (Nephotettix cincticeps). The series is described as follows: Nephotettix test. The note with it: concentration of active compound 0.1 %, rice seedlings dipped. Format: in vivo. How it is done: as §4, §5, §6
Rice seedlings (Oryza sativa) are treated by being dipped into the preparation of active compound of the desired concentration and are populated with larvae of the green rice leafhopper (Nephotettix cincticeps) while the seedlings are still moist.
After the desired period of time, the kill in % is determined. 100% means that all leaf hoppers have been killed; 0% means that none of the leaf hoppers have been killed.

Series [4] has as its system greenhouse red spider mite (Tetranychus urticae). The series is described as follows: Tetranychus test (OP-resistant/dip treatment). Particulars: concentration of active compound 0.01 %, bean plants dipped, OP-resistant. Format: in vivo. How it is done:
as §4, §5
To produce a suitable preparation of active compound, 1 part by weight of active compound is mixed with the stated amount of solvent and the stated amount of emulsifier, and the concentrate is diluted with emulsifier-containing water to the desired concentrations.
Bean plants (Phaseolus vulgaris) which are heavily infested by all stages of the greenhouse red spider mite (Tetranychus urticae) are dipped into a preparation of active compound of the desired concentration.
After the desired period of time, the effect in % is determined. 100% means that all spider mites have been killed; 0% means that none of the spider mites have been killed.

In series [5] the test system is Erysiphe graminis f.sp. tritici. In words: Erysiphe test (wheat) / protective. Format: in vivo. Particulars: evaluation 7 days after inoculation. On the procedure:
Solvent: 25 parts by weight of N,N-dimethylacetamide
Emulsifier: 0.6 part by weight of alkylaryl polyglycol ether
as §3
To test for protective activity, young plants are sprayed with the preparation of active compound at the stated application rate.
After the spray coating has dried on, the plants are dusted with spores von Erysiphe graminis f.sp. tritici.
The plants are placed in a greenhouse at a temperature of about 20° C. and a relative atmospheric humidity of about 80% to promote the development of mildew pustules.
Evaluation is carried out 7 days after the inoculation. 0% means an efficacy which corresponds to that of the control, whereas an efficacy of 100% means that no infection is observed.

The mark [6] stands for this setting: acidic, isomer mixtures, the higher log p value is stated, Table 13, read-out: log p (acidic).
Where [7] appears, read: pH 2.3, pH 2.3, for Example 1 two values for the two isomers, read-out: log p (pH 2.3).

`Cc1nsc(NC(=O)Cc2ccc(C3(C)OCC(c4cccc(Cl)c4)O3)cc2)c1Cl` (centres unmarked) [Example 15]: the pest or weed control at 100 g/ha in the series on Plasmopara vilicola turned out to be 97%. For the same compound, the logP in the series “log p determination” (setting [6]) is 4.32.
As for `Cc1nsc(NC(=O)Cc2ccc(C3(C)OCC(c4ccc(Cl)c(Cl)c4)O3)cc2)c1Cl` (centres unmarked) [Example 16], the pest or weed control at 0.1 % in series [1] came out at 100%. The logP in the series “log p determination” (setting [6]) was found to be 4.82.
For `Cc1nsc(NC(=O)Cc2ccc(C3(C)OCC(c4ccc(Cl)cc4)O3)cc2)c1Cl` (centres unmarked) [Example 17], the Efficacy in % with Podosphaera leucotricha was determined as 99%. Besides, in series [1], the pest or weed control at 0.1 % is 100%. The “Kill rate in % after 7 d” value in series [2] is on record as 100%. For the same compound, the pest or weed control at 100 g/ha in the series on Plasmopara vilicola came out at 97%. Further, the logP in “log p determination” (setting [6]) came to 4.35.
As for `CC(=O)c1ccc(CC(=O)Nc2snc(C)c2Cl)cc1`, the logP in “log p determination” (setting [7]) came out at 2.12.
For `CCCCCCCCC1COC(C)(c2ccc(CC(=O)Nc3snc(C)c3Cl)cc2)O1` (centres unmarked) [Example 1], in series [1], the pest or weed control at 0.1 % amounted to 100%. The logP in the series “log p determination” (setting [7]) was determined as 5.84. In “log p determination” (pH 2.3, for Example 1 two values for the two isomers), the “log p (pH 2.3)” value is on record as 6.05.
Compound `CCc1nsc(NC(=O)Cc2cccc(C(C)=O)c2)n1` [Example 30] returned a melting point of 121 to 125 °C. Moreover, in the series “log p determination” (setting [7]), the logP worked out at 1.87.
As to `Cc1nsc(NC(=O)Cc2ccc(C3(C)OCC(CBr)(CBr)CO3)cc2)c1Cl` [Example 20], in series [3], the “Kill rate in % after 6 d” value came to 100%. For the same compound, the “Kill rate in % after 7 d” value in [2] is given as 100%. In addition, in the series on Plasmopara vilicola, the pest or weed control at 100 g/ha turned out to be 96%. In addition, the logP in “log p determination” (setting [6]) is 4.21.
Regarding `Cc1nsc(NC(=O)Cc2ccc(C3(C)OCC(C(C)(C)C)O3)cc2)c1Cl` (centres unmarked) [Example 5], the “Kill rate in % after 6 d” value in [3] is given as 100%. For the same compound, the “Kill rate in % after 7 d” value in series [4] was determined as 100%. The logP in “log p determination” (setting [6]) worked out at 4.
In the series on Podosphaera leucotricha, `Cc1nsc(NC(=O)Cc2ccc(C3(C)OCC(c4ccccc4)O3)cc2)c1Cl` (centres unmarked) [Example 3] showed an Efficacy in % of 99%. Besides, the pest or weed control at 0.1 % in series [1] turned out to be 100%. For the same compound, in series [4], the “Kill rate in % after 7 d” value was found to be 100%. Also, the pest or weed control at 100 g/ha in the series with Plasmopara vilicola worked out at 99%. For the same compound, in the series “log p determination” (setting [6]), the logP worked out at 3.83.
Turning to `CCC1COC(C)(c2ccc(CC(=O)Nc3snc(C)c3Cl)cc2)O1` (centres unmarked) [Example 7], the “Kill rate in % after 6 d” value in series [3] amounted to 100%. The figures for the Efficacy in % (in the series with Podosphaera leucotricha; in series [5] (application rate 1000 g/ha)) were 97% and 81%, respectively. For the same compound, the pest or weed control at 0.1 % in series [1] was 100%. Also, the “Kill rate in % after 7 d” value in series [2] worked out at 100%. In the series with Plasmopara vilicola, the pest or weed control at 100 g/ha amounted to 100%. The logP in “log p determination” (setting [6]) amounted to 3.23.
In the case of `CC=CCCCC1COC(C)(c2ccc(CC(=O)Nc3snc(C)c3Cl)cc2)O1` (centres unmarked) [Example 8], the Efficacy in % came out at 95% with Podosphaera leucotricha and 81% in series [5] (application rate 500 g/ha). Also, the pest or weed control at 0.1 % in series [1] is 100%. For the same compound, the “Kill rate in % after 7 d” value in series [4] and in series [2] was 100% each time. The pest or weed control at 100 g/ha in the series with Plasmopara vilicola amounted to 97%. In addition, in the series “log p determination” (setting [6]), the logP is 4.4.
Turning to `Cc1nsc(NC(=O)Cc2ccc(C3(C)OCC(CCl)O3)cc2)c1Cl` (centres unmarked) [Example 6], in [3], the “Kill rate in % after 6 d” value is recorded as 100%. Moreover, the pest or weed control at 0.1 % in series [1] came to 100%. Besides, the pest or weed control at 100 g/ha in the series on Plasmopara vilicola was 100%. Moreover, the logP in “log p determination” (setting [6]) stood at 3.09.
In the case of `CC(=O)c1cccc(CC(=O)Nc2snc(C)c2Cl)c1` [Example 31, 5-[3-(acetylphenyl)-acetaminol]-4-chloro-3-methyl-isothiazole], the melting point lay within 77 to 83 °C. In the series “log p determination” (setting [7]), the logP is 2.14.
In the same order, the values of `CC(=O)c1cccc(CC(=O)Nc2nc(C)ns2)c1` [Example 29, 5-[3(-acetylphenyl)acetaminol]-3-methyl-1,2,4-thiadiazole] are 91 to 98 °C and 1.56.
Regarding `C=CCOCC1COC(C)(c2ccc(CC(=O)Nc3snc(C)c3Cl)cc2)O1` (centres unmarked) [Example 4], the “Kill rate in % after 7 d” value in series [4] turned out to be 100%. In the series on Plasmopara vilicola, the pest or weed control at 100 g/ha came out at 100%. For the same compound, the logP in the series “log p determination” (setting [6]) came to 3.23.
Take `Cc1nsc(NC(=O)Cc2ccc(C3(C)OCC(COc4ccc(Cl)cc4)O3)cc2)c1Cl` (centres unmarked) [Example 9]: the Efficacy in % with Podosphaera leucotricha worked out at 97%. The pest or weed control at 0.1 % in series [1] amounted to 100%. Further, the pest or weed control at 100 g/ha in the series on Plasmopara vilicola amounted to 100%. Also, in the series “log p determination” (setting [6]), the logP is 4.24.
